In ChEMBL document CHEMBL4825743, “Novel Substituted Heterocyclic and Heteroaryl Compounds for Treating Huntington's Disease” (ACS Med Chem Lett, 2021):

Biological target: Huntingtin (Homo sapiens, UniProt P42858)
Test: Inhibition of Huntingtin protein (unknown origin) incubated for overnight in presence of MW1/MAB2166 monoclonal antibody by ELISA-based MSD electrochemiluminescence assay

Huntingtin, sequence (P42858 whole entry): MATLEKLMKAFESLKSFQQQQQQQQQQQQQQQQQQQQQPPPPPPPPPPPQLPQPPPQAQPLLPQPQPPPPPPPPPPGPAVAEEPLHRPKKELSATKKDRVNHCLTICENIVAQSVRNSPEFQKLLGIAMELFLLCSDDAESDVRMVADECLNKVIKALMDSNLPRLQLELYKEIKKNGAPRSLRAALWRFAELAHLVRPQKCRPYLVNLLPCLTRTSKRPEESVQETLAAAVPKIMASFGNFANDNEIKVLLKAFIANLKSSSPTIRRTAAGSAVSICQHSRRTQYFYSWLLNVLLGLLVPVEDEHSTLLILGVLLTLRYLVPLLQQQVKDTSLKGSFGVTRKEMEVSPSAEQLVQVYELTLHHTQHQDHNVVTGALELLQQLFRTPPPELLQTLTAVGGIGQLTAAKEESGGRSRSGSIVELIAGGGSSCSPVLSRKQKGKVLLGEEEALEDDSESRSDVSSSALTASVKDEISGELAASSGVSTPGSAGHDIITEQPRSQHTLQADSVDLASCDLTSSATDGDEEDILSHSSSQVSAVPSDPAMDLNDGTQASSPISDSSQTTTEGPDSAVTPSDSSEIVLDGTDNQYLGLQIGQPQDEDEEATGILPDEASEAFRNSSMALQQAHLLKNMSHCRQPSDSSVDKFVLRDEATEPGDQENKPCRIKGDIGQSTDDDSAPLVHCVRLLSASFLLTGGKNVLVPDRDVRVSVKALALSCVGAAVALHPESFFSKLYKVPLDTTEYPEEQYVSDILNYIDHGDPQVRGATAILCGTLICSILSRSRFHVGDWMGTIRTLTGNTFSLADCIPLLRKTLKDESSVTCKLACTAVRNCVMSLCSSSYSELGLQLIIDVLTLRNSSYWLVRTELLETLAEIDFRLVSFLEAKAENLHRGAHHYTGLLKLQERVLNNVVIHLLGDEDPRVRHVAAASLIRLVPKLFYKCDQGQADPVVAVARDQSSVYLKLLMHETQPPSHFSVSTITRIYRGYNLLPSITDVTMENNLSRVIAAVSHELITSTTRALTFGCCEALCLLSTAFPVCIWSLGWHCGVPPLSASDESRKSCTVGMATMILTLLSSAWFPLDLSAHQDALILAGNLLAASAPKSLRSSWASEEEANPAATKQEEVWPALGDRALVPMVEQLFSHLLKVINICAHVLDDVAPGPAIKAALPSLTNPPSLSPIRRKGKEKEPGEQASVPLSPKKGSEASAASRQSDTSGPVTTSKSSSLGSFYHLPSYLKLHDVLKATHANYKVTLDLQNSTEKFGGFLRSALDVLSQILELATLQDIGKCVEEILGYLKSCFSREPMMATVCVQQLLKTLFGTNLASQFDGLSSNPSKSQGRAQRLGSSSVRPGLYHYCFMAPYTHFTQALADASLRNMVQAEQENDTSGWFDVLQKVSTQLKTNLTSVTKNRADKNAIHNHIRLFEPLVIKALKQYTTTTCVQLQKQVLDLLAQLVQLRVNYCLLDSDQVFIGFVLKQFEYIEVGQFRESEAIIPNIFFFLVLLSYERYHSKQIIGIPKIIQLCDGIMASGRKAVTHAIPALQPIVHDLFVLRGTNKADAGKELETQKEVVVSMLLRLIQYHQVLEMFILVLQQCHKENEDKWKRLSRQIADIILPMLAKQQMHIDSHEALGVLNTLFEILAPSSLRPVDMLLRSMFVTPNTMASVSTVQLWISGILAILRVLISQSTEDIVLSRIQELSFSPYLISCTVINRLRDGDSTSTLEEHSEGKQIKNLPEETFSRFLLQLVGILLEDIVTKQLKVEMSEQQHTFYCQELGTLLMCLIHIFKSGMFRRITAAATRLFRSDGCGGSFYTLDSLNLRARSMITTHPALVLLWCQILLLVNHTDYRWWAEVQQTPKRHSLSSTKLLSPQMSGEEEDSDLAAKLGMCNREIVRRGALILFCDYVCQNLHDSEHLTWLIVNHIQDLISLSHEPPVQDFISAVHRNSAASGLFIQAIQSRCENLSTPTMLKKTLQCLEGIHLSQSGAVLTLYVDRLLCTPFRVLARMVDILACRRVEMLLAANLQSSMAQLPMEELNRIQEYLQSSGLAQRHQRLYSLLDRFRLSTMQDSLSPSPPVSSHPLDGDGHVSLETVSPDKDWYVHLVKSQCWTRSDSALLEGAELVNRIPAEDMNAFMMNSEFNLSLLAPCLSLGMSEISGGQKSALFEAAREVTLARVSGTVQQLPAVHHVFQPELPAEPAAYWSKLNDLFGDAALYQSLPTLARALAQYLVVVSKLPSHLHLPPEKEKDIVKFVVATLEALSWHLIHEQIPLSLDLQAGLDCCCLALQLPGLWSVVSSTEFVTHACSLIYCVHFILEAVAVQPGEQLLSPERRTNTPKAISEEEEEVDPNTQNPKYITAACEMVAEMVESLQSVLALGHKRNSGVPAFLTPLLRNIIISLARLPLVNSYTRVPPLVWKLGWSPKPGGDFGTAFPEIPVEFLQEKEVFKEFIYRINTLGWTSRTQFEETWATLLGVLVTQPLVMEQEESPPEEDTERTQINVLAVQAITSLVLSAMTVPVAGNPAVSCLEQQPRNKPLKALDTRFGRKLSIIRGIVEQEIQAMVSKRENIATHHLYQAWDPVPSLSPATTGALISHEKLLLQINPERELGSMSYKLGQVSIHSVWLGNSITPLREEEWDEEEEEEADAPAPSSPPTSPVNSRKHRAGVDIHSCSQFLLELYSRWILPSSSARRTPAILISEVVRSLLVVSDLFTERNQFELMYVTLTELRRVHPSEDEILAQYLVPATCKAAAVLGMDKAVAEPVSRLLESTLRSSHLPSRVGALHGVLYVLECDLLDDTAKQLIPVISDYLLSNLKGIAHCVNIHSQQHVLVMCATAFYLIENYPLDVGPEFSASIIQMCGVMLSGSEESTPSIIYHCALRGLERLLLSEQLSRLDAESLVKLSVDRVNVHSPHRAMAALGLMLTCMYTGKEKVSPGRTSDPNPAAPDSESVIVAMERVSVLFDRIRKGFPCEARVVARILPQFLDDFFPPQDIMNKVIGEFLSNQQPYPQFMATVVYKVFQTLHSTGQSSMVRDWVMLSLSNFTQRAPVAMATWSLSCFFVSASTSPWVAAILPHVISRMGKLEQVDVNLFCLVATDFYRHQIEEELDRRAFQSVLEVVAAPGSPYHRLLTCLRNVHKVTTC

IC50 | Structure (SMILES)
≤ 100 nM | CC1(C)CC(n2nnc3cc(-c4ccc(-c5ncco5)cc4O)nnc32)CC(C)(C)N1
≤ 100 nM | COc1ncnc(-c2ccc(-c3cc4nnn(C5CC(C)(C)NC(C)(C)C5)c4nn3)c(O)c2)n1
≤ 100 nM | CC1(C)C=C(c2csc3cc(-c4ccc(-c5cn[nH]c5)cc4O)nnc23)CC(C)(C)N1
≤ 100 nM | CC1(C)CC(n2nnc3cc(-c4ccc(-c5nncs5)cc4O)nnc32)CC(C)(C)N1
≤ 100 nM | CC1(C)CC(n2nnc3cc(-c4ccc(-c5nccs5)cc4O)nnc32)CC(C)(C)N1
≤ 100 nM | CC1(C)CC(n2nnc3cc(-c4ccc(-n5nccn5)cc4O)nnc32)CC(C)(C)N1 [VOTOPLAM]
